Experimental data taken from US7923464B2, “Benzimidazole derivatives and their use for modulating the GABAA receptor complex” (Neurosearch A/S, priority 2005, dated 2011).
pIC50: −log10 of the molar value.

Biological target: benzodiazepine modulatory unit (GABAA receptor complex), labelled with 3H-flunitrazepam
Assay: In vitro inhibition of 3H-flunitrazepam (3H-FNM) binding
Design: species or system rat
Details: cerebral cortex membranes from male Wistar rats; 3H-FNM 1 nM; 40 min at 2° C.
Method: In Vitro Inhibition of ^3H-flunitrazepam (^3H-FNM) Binding
The GABA recognition site and the benzodiazepine modulatory unit can selectively be labelled with ^3H-flunitrazepam.
Preparations are performed at 0-4° C. unless otherwise indicated. Cerebral cortex from male Wistar rats (150-200 g) is homogenised for 5-10 sec in 20 ml Tris-HCl (30 mM, pH 7.4) using an Ultra-Turrax homogeniser. The suspension is centrifuged at 27,000×g for 15 min and the pellet is washed three times with buffer (centrifuged at 27,000×g for 10 min). The washed pellet is homogenized in 20 ml of buffer and incubated on a water bath (37° C.) for 30 min to remove endogenous GABA and then centrifuged for 10 min at 27,000×g. The pellet is then homogenized in buffer and centrifuged for 10 min at 27,000×g. The final pellet is resuspended in 30 ml buffer and the preparation is frozen and stored at −20° C.
The membrane preparation is thawed and centrifuged at 2° C. for 10 min at 27,000×g. The pellet is washed twice with 20 ml 50 mM Tris-citrate, pH 7.1 using an Ultra-Turrax homogeniser and centrifuged for 10 min at 27,000×g. The final pellet is resuspended in 50 mM Tris-citrate, pH 7.1 (500 ml buffer per g of original tissue), and then used for binding assays. Aliquots of 0.5 ml tissue are added to 25 μl of test solution and 25 μl of ^3H-FNM (1 nM, final concentration), mixed and incubated for 40 min at 2° C. Non-specific binding is determined using Clonazepam (1 μM, final concentration). After incubation the samples are added 5 ml of ice-cold buffer and poured directly onto Whatman GF/C glass fibre filters under suction and immediately washed with 5 ml ice-cold buffer. The amount of radioactivity on the filters is determined by conventional liquid scintillation counting. Specific binding is total binding minus non-specific binding.
Co is specific binding in control assays, and
Cx is the specific binding in the test assay.
(The calculations assume normal mass-action kinetics).

Row | Compound | pIC50
1 | COc1ccccc1-c1cccc(-n2cnc3cc([C@@H](C)NC(C)=O)ccc32)c1 [Compound 12b, N-{(R)-1-[1-(2′-Methoxy-biphenyl-3-yl)-1H-benzoimidazol-5-yl]-ethyl}-acetamide] | 7.22
2 | COc1ccccc1-c1cccc(-n2cnc3cc([C@H](C)NC(C)=O)ccc32)c1 [Compound 12g, N-{(S)-1-[1-(2′-Methoxy-biphenyl-3-yl)-1H-benzoimidazol-5-yl]-ethyl}-acetamide] | 8.59
3 | CC(N)c1ccc2c(c1)ncn2-c1cccc(-c2ccccc2)c1 (centres unmarked) [Compound 3a, 1-(1-Biphenyl-3-yl-1H-benzoimidazol-5-yl)-ethylamine] | 7.14
4 | C[C@@H](N)c1ccc2c(c1)ncn2-c1cccc(-c2ccccc2C#N)c1 [Compound 12r, 3′-[5-((R)-1-Amino-ethyl)-benzoimidazol-1-yl]-biphenyl-2-carbonitrile] | 8.43
5 | COc1ccccc1-c1cccc(-n2cnc3cc([C@@H](C)N)ccc32)c1 [Compound 12o, (R)-1-[1-(2′-Methoxy-biphenyl-3-yl)-1H-benzoimidazol-5-yl]-ethylamine] | 8.17
